We go through seven compounds from ChEMBL document CHEMBL1201862, “PubChem BioAssay data set” (2004).

Among the test systems are RPMI-8226; SNB-75; HCC 2998; SK-MEL-2; UACC-257; NCI-H226; CAKI-1; SK-MEL-5; HOP-62; M14; OVCAR-8; SK-OV-3; U-251; OVCAR-5; T47D; A498; LOX IMVI; SW-620; KM12; SK-MEL-28.
What all share (assay): DTP human tumour cell line panel, 48 h

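Tested at 5 concentrations; 48 h exposure; 96-well plates; endpoints linearly interpolated, else capped at highest concentration. At the GI50, growth is halved.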 Active and inactive are the calls of the source. Cut-off read from the data, not from the text of the source: active = GI50 up to about 1.1 µM and inactive = higher.

By GI50 is commonly meant the concentration at which growth is held to half of that of the control.

Regarding `CC(C)Cc1ccc(C(C)CC2=CCC(CN(C)C)C2=O)cc1` (stereo not drawn), the GI50 in the test on RPMI-8226 was 0.333 µM (active); in the test with SNB-75, 15.8 µM (inactive); with HCC 2998, 5.19 µM (inactive); with SK-MEL-2, 13.2 µM (inactive); in the test with UACC-257 it was 13.5 µM (inactive); with NCI-H226, 16.7 µM (inactive). Also, the GI50 with CAKI-1 was 1.84 µM (inactive); with SK-MEL-5, 15.3 µM (inactive); in the test with HOP-62, 21.1 µM (inactive); in the test on M14, 4.7 µM (inactive); in the test with OVCAR-8, 7.41 µM (inactive); in the test with SK-OV-3 it was 17.6 µM (inactive). Also, the GI50 in the test on U-251 was 6.34 µM (inactive); in the test with OVCAR-5, 16.1 µM (inactive); in the test on T47D, 1.86 µM (inactive); in the test on A498 it was 18.5 µM (inactive); in the test with LOX IMVI, 4.97 µM (inactive); in the test with SW-620, 2.12 µM (inactive). The GI50 in the test on KM12 was 3.13 µM (inactive); with SK-MEL-28, 9.31 µM (inactive).

On to `O=C(CCN1CCCCC1)N1CCc2c([nH]c3ccccc23)C1c1cccnc1` (stereo not drawn), for which the GI50 with RPMI-8226 was 39.7 µM (inactive); with SNB-75, 58.3 µM (inactive); with HCC 2998, 28 µM (inactive); in the test on SK-MEL-2, 18.3 µM (inactive); in the test with UACC-257, 17.5 µM (inactive); in the test on NCI-H226, > 91.8 µM (inactive). Moreover, the GI50 in the test on CAKI-1 is > 73.6 µM (inactive); with SK-MEL-5, 21.3 µM (inactive); with HOP-62 it was > 82.2 µM (inactive); in the test with M14, 22.9 µM (inactive); with OVCAR-8 it was 69.3 µM (inactive); in the test on SK-OV-3 it was > 100 µM (inactive). Further, the GI50 with U-251 was 80 µM (inactive); with OVCAR-5, > 73.3 µM (inactive); with T47D, 64.1 µM (inactive); in the test with A498, 30.5 µM (inactive); with LOX IMVI, 40.6 µM (inactive); with SW-620, > 94 µM (inactive). For the same compound, the figures for the GI50 in the test with KM12 and in the test with SK-MEL-28 were > 100 µM (inactive) and 19.5 µM (inactive), respectively.

In the case of `COC(=O)[C@@H]1OC(C)(c2ccccc2)O[C@H]1C(=O)OC`, the GI50 in the test with RPMI-8226 was > 100 µM (inactive); with SNB-75, > 100 µM (inactive); with HCC 2998, 76.4 µM (inactive); with SK-MEL-2 it was > 100 µM (inactive); in the test with UACC-257, > 100 µM (inactive); with NCI-H226, > 100 µM (inactive). Further, the GI50 in the test on CAKI-1, in the test on SK-MEL-5, in the test with HOP-62, with M14, in the test on OVCAR-8 and with SK-OV-3 was > 100 µM (inactive) each time. The GI50 in the test with U-251, in the test with OVCAR-5, in the test on T47D, with A498, in the test with LOX IMVI and with SW-620 was > 100 µM (inactive) in each case. In addition, the GI50 in the test with KM12 and in the test on SK-MEL-28 was > 100 µM (inactive) in each case.

With `CN(C)c1nncc2[nH]nnc12`, the GI50 with RPMI-8226, with SNB-75, in the test on HCC 2998, in the test on SK-MEL-2, in the test with UACC-257 and in the test with NCI-H226 was > 100 µM (inactive) in each case. Besides, the GI50 in the test on CAKI-1, with SK-MEL-5, in the test with HOP-62, in the test with M14, in the test with OVCAR-8 and with SK-OV-3 was > 100 µM (inactive) in each case. The GI50 in the test on U-251, in the test with OVCAR-5, in the test with T47D, in the test on A498, in the test on LOX IMVI and with SW-620 was > 100 µM (inactive) in each case. Further, the GI50 in the test on KM12 and in the test on SK-MEL-28 was > 100 µM (inactive) throughout.

In the case of `CCCCN1C(=O)CC2[C@@H]3CCc4cc(OC)ccc4C3CC[C@]2(C)C1=O` (stereo partly drawn), the GI50 was > 10 µM (inactive) with RPMI-8226; 3.1 µM (inactive) with SNB-75; > 10 µM (inactive) in the test with HCC 2998; > 10 µM (inactive) in the test on SK-MEL-2; > 10 µM (inactive) in the test on UACC-257; > 10 µM (inactive) with NCI-H226. For the same compound, the GI50 in the test on CAKI-1, in the test with SK-MEL-5, in the test on HOP-62, in the test with M14, with OVCAR-8 and in the test with SK-OV-3 was > 10 µM (inactive) each time. Also, the GI50 with U-251, in the test on OVCAR-5, with T47D, in the test on A498, in the test with LOX IMVI and in the test with SW-620 was > 10 µM (inactive) throughout. In addition, the GI50 in the test on KM12 and with SK-MEL-28 was > 10 µM (inactive) throughout.

As for `N=C(N)C1CN(CCCCCCCCCCN2CC(C(=N)N)C(O)=NC2=O)C(=O)N=C1O` (stereo not drawn), the GI50 in the test on RPMI-8226, in the test on SNB-75, with HCC 2998, in the test on SK-MEL-2, with UACC-257 and in the test on NCI-H226 was > 10 µM (inactive) in each case. For the same compound, the GI50 in the test with CAKI-1, with SK-MEL-5, with HOP-62, in the test with M14, with OVCAR-8 and in the test on SK-OV-3 was > 10 µM (inactive) throughout. For the same compound, the GI50 in the test on U-251, in the test on OVCAR-5, in the test with T47D, in the test on A498, in the test with LOX IMVI and with SW-620 was > 10 µM (inactive) in each case. Also, the GI50 with KM12 is > 10 µM (inactive).

On to `COc1cc2c(cc1[N+](=O)[O-])C(=O)C(Br)(Br)CCC2`, for which the GI50 was 1.8 µM (inactive) with RPMI-8226; 13.1 µM (inactive) in the test on SNB-75; 14 µM (inactive) in the test on HCC 2998; 2.13 µM (inactive) in the test with SK-MEL-2; 13.6 µM (inactive) in the test on UACC-257; 3.47 µM (inactive) in the test with NCI-H226. The GI50 in the test with CAKI-1 is 2.92 µM (inactive); in the test with SK-MEL-5, 1.72 µM (inactive); in the test on HOP-62 it was 3.38 µM (inactive); in the test on M14, 2.12 µM (inactive); in the test on OVCAR-8, 2.25 µM (inactive); with SK-OV-3, 3.21 µM (inactive). In addition, the GI50 in the test on U-251 is 2.23 µM (inactive); in the test with OVCAR-5 it was 1.91 µM (inactive); in the test with T47D it was 2.68 µM (inactive); in the test with A498, 15.3 µM (inactive); in the test on LOX IMVI, 0.4 µM (active); with SW-620, 1.88 µM (inactive). Besides, the GI50 in the test with KM12 was 3.78 µM (inactive).
